Tested on: T cell blast formation in human blood
Assay: In vitro inhibition of T cell blast formation in human blood (human whole blood blast formation, PHA stimulated, flow cytometry)
Assay type: cell-based
Conditions: 72 hours, mean where multiple measurements
Procedure: Cells are collected after a 72 hours culture period at 37° C., supernatant is removed by centrifugation and red blood cells are lysed by a hypotonic buffer. The remaining white blood cells are collected in PBS containing propidium iodide. The blast formation is analyzed using a benchtop flow cytometer (Cytoron, Ortho) equipped with an argon-ion laser. […] When multiple measurements were performed, a mean value was calculated for the percentage inhibition of T cell blast formation.

[1] = Test Dose 1 × 10^−6 (unit not given)
[2] = Test Dose 3 × 10^−7 (unit not given)
[3] = Test Dose 1 × 10^−7 (unit not given)

Row | SMILES | % Inhibition of T cell blast formation [1] [%] | also measured
1 | C#CC(O)(c1ccccc1)c1ccc(NC(=O)C2CC(c3cccnc3)=NO2)cc1 (racemic) [Compound 69, [B(R)]±[B(S)]-4,5-dihydro-N-[4-(1-hydroxy-1-phenyl-2-propynyl)phenyl]-3-(3-pyridinyl)-5-isoxazolecarboxamide] | 73 | 
2 | N#CC(OC(N)=O)(c1ccccc1)c1ccc(NC(=O)C2CC(c3cccnc3)=NO2)cc1 (racemic) [Compound 75, (±)-[cyano[4-[[[4,5-dihydro-3-(3-pyridinyl)-5-isoxazolyl]carbonyl]amino]phenyl]phenylmethyl]carbamate] |  | % Inhibition of T cell blast formation [2]: 67%
3 | O=C(/C=C/c1c(F)cccc1F)c1ccc(NC(=O)C2CC(c3cccnc3)=NO2)cc1 (racemic) [Compound 468] |  | % Inhibition of T cell blast formation [2]: 61%
4 | O=C(/C=C/c1ccc2c(c1)OCO2)c1ccc(NC(=O)C2CC(c3cccnc3)=NO2)cc1 (racemic) [Compound 469] |  | % Inhibition of T cell blast formation [2]: 65%
5 | C=CCOc1ccccc1/C=C/C(=O)c1ccc(NC(=O)C2CC(c3cccnc3)=NO2)cc1 (racemic) [Compound 470] | 87 | 
6 | O=C(/C=C/c1ccccc1C(F)(F)F)c1ccc(NC(=O)C2CC(c3cccnc3)=NO2)cc1 (racemic) [Compound 471] |  | % Inhibition of T cell blast formation [2]: 54%
7 | O=C(/C=C/c1ccccc1F)c1ccc(NC(=O)C2CC(c3cccnc3)=NO2)cc1 (racemic) [Compound 473] |  | % Inhibition of T cell blast formation [2]: 72%
8 | Cc1ccccc1/C=C/C(=O)c1ccc(NC(=O)C2CC(c3cccnc3)=NO2)cc1 (racemic) [Compound 475] |  | % Inhibition of T cell blast formation [2]: 56%
9 | O=C(/C=C/c1c(F)cccc1Cl)c1ccc(NC(=O)C2CC(c3cccnc3)=NO2)cc1 (racemic) [Compound 476] |  | % Inhibition of T cell blast formation [2]: 67%
10 | COc1ccccc1/C=C/C(=O)c1ccc(NC(=O)C2CC(c3cccnc3)=NO2)cc1 (racemic) [Compound 477] |  | % Inhibition of T cell blast formation [2]: 63%
11 | O=C(/C=C/c1ccccc1)c1ccc(NC(=O)C2CC(c3cccnc3)=NO2)cc1 (racemic) [Compound 478] |  | % Inhibition of T cell blast formation [2]: 70%
12 | COc1ccc(/C=C/C(=O)c2ccc(NC(=O)C3CC(c4cccnc4)=NO3)cc2)c(C)c1C (racemic) [Compound 479] | 85 | 
13 | O=C(Nc1ccc(C(O)(c2ccccc2)c2ccccn2)cc1)C1CC(c2cccnc2)=NO1 (single isomer, unassigned) [Compound 68] | 61 | 
14 | O=C(c1ccc(NC(=O)C2CC(c3cccnc3)=NO2)cc1)c1ccccn1 (single isomer, unassigned) [Compound 394] | 84 | 
15 | O=C(Nc1ccc(C(=NO)c2ccccc2)cc1)C1CC(c2cccnc2)=NO1 (single isomer, unassigned) [Compound 419] |  | % Inhibition of T cell blast formation [3]: 86%
16 | O=C(Nc1ccc(C(=NO)c2ccccc2)cc1)C1CC(c2cccnc2)=NO1 (single isomer, unassigned) [Compound 420] | 39 | 
17 | O=C(c1ccc(NC(=O)C2CC(c3cccnc3)=NO2)cc1)c1ccccn1 (single isomer, unassigned) [Compound 489] |  | % Inhibition of T cell blast formation [3]: 80%
18 | O=C(Nc1ccc(C(O)c2ccccn2)cc1)C1CC(c2cccnc2)=NO1 (single isomer, unassigned) [Compound 525] | 74 | 
19 | COc1cccc(C(=O)c2ccc(NC(=O)C3CC(c4cccnc4)=NO3)cc2)c1 (centres unmarked) [Compound 9] | 71 | 

Row | SMILES | % Inhibition of T cell blast formation [1] [%] | also measured
20 | Cc1cccc(C(=O)c2ccc(NC(=O)C3CC(c4cccnc4)=NO3)cc2)c1 (centres unmarked) [Compound 10] | 75 | 
21 | O=C(c1ccc(NC(=O)C2CC(c3cccnc3)=NO2)cc1)c1cccc(F)c1 (centres unmarked) [Compound 12] | 83 | 
22 | O=C(c1ccc(F)cc1)c1ccc(NC(=O)C2CC(c3cccnc3)=NO2)cc1 (centres unmarked) [Compound 13] | 78 | 
23 | O=C(c1ccc(NC(=O)C2CC(c3cccnc3)=NO2)cc1)c1ccccc1Cl (centres unmarked) [Compound 14] | 78 | 
24 | Nc1ccc(C(=O)c2ccc(NC(=O)C3CC(c4cccnc4)=NO3)cc2)cc1 (centres unmarked) [Compound 17] |  | % Inhibition of T cell blast formation [2]: 53%
25 | O=C(Nc1ccc(Oc2ccccc2)cc1)C1CC(c2cccnc2)=NO1 (centres unmarked) [Compound 36] |  | % Inhibition of T cell blast formation (Test Dose 1 × 10^−5 (unit not given)): 85%
26 | CC(C#N)(c1ccc(F)cc1)c1ccc(NC(=O)C2CC(c3cccnc3)=NO2)cc1F (centres unmarked) [Compound 39] | 67 | 
27 | CC(C#N)(c1ccccc1)c1ccc(NC(=O)C2CC(c3cccnc3)=NO2)cc1 (centres unmarked) [Compound 45] | 78 | 
28 | COC(c1ccccc1)c1ccc(NC(=O)C2CC(c3cccnc3)=NO2)cc1.Cl (centres unmarked) [Compound 52] | 89 | 
29 | Nc1nc(-c2ccccc2)c(C(c2ccccc2)c2ccc(NC(=O)C3CC(c4cccnc4)=NO3)cc2)s1 (centres unmarked) [Compound 53] | 39 | 
30 | O=C(Nc1ccc(C(O)(Cc2cccnc2)c2ccccc2)cc1)C1CC(c2cccnc2)=NO1 (centres unmarked) [Compound 73] |  | % Inhibition of T cell blast formation [2]: 67%
31 | O=C(Nc1ccc(C(NC2CC2)c2ccccc2)cc1)C1CC(c2cccnc2)=NO1 (centres unmarked) [Compound 90] | 33 | 
32 | Cn1ncc2ccc(CNC(c3ccccc3)c3ccc(NC(=O)C4CC(c5cccnc5)=NO4)cc3)cc21 (centres unmarked) [Compound 94] | 44 | 
33 | O=C(Nc1ccc(C(Nc2ccc3[nH]nnc3c2)c2ccccc2)cc1)C1CC(c2cccnc2)=NO1 (centres unmarked) [Compound 96] | 39 | 
34 | O=C(Nc1ccc(C(NCc2ccncc2)c2ccccc2)cc1)C1CC(c2cccnc2)=NO1 (centres unmarked) [Compound 97] | 58 | 
35 | O=C(Nc1ccc(C(Nc2ccccn2)c2ccccc2)cc1)C1CC(c2cccnc2)=NO1 (centres unmarked) [Compound 99] | 83 | 
36 | CC(C)NC(c1ccccc1)c1ccc(NC(=O)C2CC(c3cccnc3)=NO2)cc1 (centres unmarked) [Compound 100] | 35 | 
37 | Cn1cnc2cc(NC(c3ccccc3)c3ccc(NC(=O)C4CC(c5cccnc5)=NO4)cc3)ccc21 (centres unmarked) [Compound 101] | 70 | 
38 | CN1CCC(NC(c2ccccc2)c2ccc(NC(=O)C3CC(c4cccnc4)=NO3)cc2)CC1 (centres unmarked) [Compound 102] | 66 | 

Row | SMILES | % Inhibition of T cell blast formation [1] [%] | also measured
39 | CN1CCC(CNC(c2ccccc2)c2ccc(NC(=O)C3CC(c4cccnc4)=NO3)cc2)CC1 (centres unmarked) [Compound 103] | 82 | 
40 | O=C(Nc1ccc(C(NC2CCN(Cc3ccccc3)CC2)c2ccccc2)cc1)C1CC(c2cccnc2)=NO1 (centres unmarked) [Compound 104] | 60 | 
41 | O=C(Nc1ccc(C(Nc2ccccc2)c2ccccc2)cc1)C1CC(c2cccnc2)=NO1 (centres unmarked) [Compound 113] |  | % Inhibition of T cell blast formation [2]: 37%
42 | COc1cc(S(N)(=O)=O)ccc1NC(c1ccccc1)c1ccc(NC(=O)C2CC(c3cccnc3)=NO2)cc1 (centres unmarked) [Compound 119] | 54 | 
43 | CN(CCC1OCCO1)C(c1ccccc1)c1ccc(NC(=O)C2CC(c3cccnc3)=NO2)cc1 (centres unmarked) [Compound 122] |  | % Inhibition of T cell blast formation [2]: 36%
44 | CCOC(=O)NC(c1ccccc1)c1ccc(NC(=O)C2CC(c3cccnc3)=NO2)cc1 (centres unmarked) [Compound 131] | 95 | 
45 | CN1CCC(N(C)CC(=O)NC(c2ccccc2)c2ccc(NC(=O)C3CC(c4cccnc4)=NO3)cc2)CC1 (centres unmarked) [Compound 146] | 95 | 
46 | CCCC(=O)NC(c1ccccc1)c1ccc(NC(=O)C2CC(c3cccnc3)=NO2)cc1 (centres unmarked) [Compound 156] | 56 | 
47 | O=C(NC(c1ccccc1)c1ccc(NC(=O)C2CC(c3cccnc3)=NO2)cc1)c1c(F)cccc1F (centres unmarked) [Compound 158] |  | % Inhibition of T cell blast formation [2]: 64%
48 | Cc1cc(NC(c2ccccc2)c2ccc(NC(=O)C3CC(c4cccnc4)=NO3)cc2)no1 (centres unmarked) [Compound 162] |  | % Inhibition of T cell blast formation [2]: 46%
49 | CN(CC(N)=O)C(c1ccccc1)c1ccc(NC(=O)C2CC(c3cccnc3)=NO2)cc1 (centres unmarked) [Compound 163] |  | % Inhibition of T cell blast formation [2]: 56%
50 | O=C(Cc1ccccc1)NC(c1ccccc1)c1ccc(NC(=O)C2CC(c3cccnc3)=NO2)cc1 (centres unmarked) [Compound 166] | 66 | 
51 | CCOc1ccc(C)c(NC(c2ccccc2)c2ccc(NC(=O)C3CC(c4cccnc4)=NO3)cc2)c1 (centres unmarked) [Compound 172] | 35 | 
52 | CC(=O)Nc1ccccc1NC(c1ccccc1)c1ccc(NC(=O)C2CC(c3cccnc3)=NO2)cc1 (centres unmarked) [Compound 174] | 42 | 
53 | Cc1cccc(NC(c2ccccc2)c2ccc(NC(=O)C3CC(c4cccnc4)=NO3)cc2)c1C (centres unmarked) [Compound 175] | 42 | 
54 | NC(=O)c1ccccc1NC(c1ccccc1)c1ccc(NC(=O)C2CC(c3cccnc3)=NO2)cc1 (centres unmarked) [Compound 192] | 72 | 
55 | O=C(Nc1ccc(C(Nc2ccccc2O)c2ccccc2)cc1)C1CC(c2cccnc2)=NO1 (centres unmarked) [Compound 203] | 62 | 
56 | NC(c1ccccc1)c1ccc(NC(=O)[C@@H]2CC(c3cccnc3)=NO2)cc1 (stereo partly drawn) [Compound 205, [5S-(A)]-N-[4-(aminophenylmethyl)phenyl]4,5-dihydro-3-(3-pyridinyl)-5-isoxazolecarboxamide] | 73 | 

Source: patent US7414048B2, “4,5-dihydro-isoxazole derivatives and their pharmaceutical use” (Janssen Pharmaceutica, N.V., priority 1998, dated 2008)
